Experimental data published in US20030180304A1, “Secretory tyrosine phosphatases from mycobacteria” (priority 2000, published 2003).
Entries after “also recorded” stand apart in the source; their conditions may differ.

Assays:
[1] = target: T1, MptpB (Mycobacterium tuberculosis, UniProt I6WXK4); format: biochemical, M. tuberculosis; details: pH 5.6
T1 construct: made in house; host or cells: E. coli BL21 (pGEX-5X-3)

[2] = target: T2, MptpA (Mycobacterium tuberculosis, UniProt P9WIA1); format: biochemical, M. tuberculosis; details: pH 7
T2 construct: made in house; host or cells: E. coli BL21 (pGEX-5X-3)
T2 sequence (P9WIA1 whole entry): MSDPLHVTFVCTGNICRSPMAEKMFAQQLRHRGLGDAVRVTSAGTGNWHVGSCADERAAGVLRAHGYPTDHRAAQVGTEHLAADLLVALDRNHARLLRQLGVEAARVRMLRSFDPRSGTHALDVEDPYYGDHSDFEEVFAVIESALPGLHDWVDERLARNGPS

T1 sequence (I6WXK4 whole entry, looked up): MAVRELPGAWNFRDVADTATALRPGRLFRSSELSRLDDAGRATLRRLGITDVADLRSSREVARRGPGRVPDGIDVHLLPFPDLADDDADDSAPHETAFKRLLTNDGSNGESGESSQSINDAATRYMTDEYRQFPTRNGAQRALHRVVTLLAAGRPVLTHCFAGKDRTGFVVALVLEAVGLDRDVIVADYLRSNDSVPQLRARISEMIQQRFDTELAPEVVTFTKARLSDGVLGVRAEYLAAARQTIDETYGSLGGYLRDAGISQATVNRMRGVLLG

O=C(O)C(O)C(O)C(=O)O (stereo not shown) [tartrate]
Effect of inhibitor on the activity of MptpB towards tyrosine phosphorylated MBP [1]: had no effect; also recorded: insensitive
Effect of inhibitor on the activity of MptpA towards tyrosine phosphorylated MBP [2]: had no effect; also recorded: insensitive

[F-].[Na+] [sodium fluoride]
Effect of inhibitor on the activity of MptpB towards tyrosine phosphorylated MBP [1]: had no effect
Effect of inhibitor on the activity of MptpA towards tyrosine phosphorylated MBP [2]: had no effect

C=C1[C@@H](O)[C@@H]2O[C@]3(CC[C@H](/C=C/[C@@H](C)[C@@H]4CC(C)=C[C@@]5(O[C@H](C[C@@](C)(O)C(=O)O)CC[C@H]5O)O4)O3)CC[C@H]2O[C@@H]1[C@@H](O)C[C@H](C)[C@H]1O[C@@]2(CCCCO2)CC[C@H]1C [okadaic acid]
Effect of inhibitor on the activity of MptpB towards tyrosine phosphorylated MBP [1]: had no effect; also recorded: did not inhibit
Effect of inhibitor on the activity of MptpA towards tyrosine phosphorylated MBP [2]: had no effect; also recorded: did not inhibit

c1ccc(C2CN3CCSC3=N2)cc1 (stereo not shown) [tetramisole]
Effect of inhibitor on the activity of MptpB towards tyrosine phosphorylated MBP [1]: had no effect; also recorded: insensitive
Effect of inhibitor on the activity of MptpA towards tyrosine phosphorylated MBP [2]: had no effect; also recorded: insensitive

[Na+].[Na+].[Na+].[O]=[V]([O-])([O-])[O-] [sodium orthovanadate]
Effect of inhibitor on the activity of MptpB towards tyrosine phosphorylated MBP [1]: inhibited
Effect of inhibitor on the activity of MptpA towards tyrosine phosphorylated MBP [2]: inhibited
